Measured values published in patent US12264145B2, “Crystal form F of trelagliptin and preparation method thereof” (GUANGDONG UNIVERSITY OF TECHNOLOGY, priority 2023, dated 2025).
Values after ≈ are worked out from the molar mass of the structure shown.

How the values were obtained:
Type in all cases: physicochemical
[1] = Equilibrium solubility of trelagliptin crystal forms in different dissolution media (UV-vis at 279 nm); details: for Solubility / solubility at 24 h: 24 h; for solubility at 24 h: 37 °C, thermodynamic from solid
[2] = High-temperature stability test (XRPD); details: 60° C. for 10 d, XRPD on day 5 and day 10
Experimental: (§1) According to the Guidelines for Stability Tests of Active Pharmaceutical Ingredients (APIs) and Formulations, the stability of the novel crystal form F of trelagliptin was tested.
(§2) High-temperature test: The novel crystal form F of trelagliptin was spread in a petri dish and then placed in a drying oven at 60° C. for 10 d, where on day 5 and day 10, a sample was taken and subjected to XRPD analysis to determine whether the crystal form was stable.

[3] = Strong light irradiation stability test (XRPD); details: illuminance 4500 lx±500 lx for 10 d, XRPD on day 5 and day 10
Experimental: as §1
as §2, with “Strong light irradiation” for “High-temperature”, “strong light irradiation test chamber with illuminance of 4500 lx±500 lx” for “drying oven at 60° C.”

Moisture absorption = details: 80% RH, 25° C., 24 h
Experimental: The dried novel crystal form F of trelagliptin prepared in this example was spread in a weighing bottle, then placed in a constant-temperature and constant-humidity incubator with a humidity of 80% RH and a temperature of 25° C. for 24 h, and then weighed.

[4] = High-humidity stability test (XRPD); details: relative humidities of 90% and 75% at 25° C. for 10 d, XRPD on day 5 and day 10
Experimental: as §1
High-humidity test: The novel crystal form F of trelagliptin was spread in petri dishes, and then the petri dishes were placed in constant-temperature and constant-humidity incubators respectively with relative humidities of 90% and 75% at 25° C. for 10 d, where on day 5 and day 10, a sample was taken and subjected to XRPD analysis to determine whether the crystal form was stable.

| Solubility ([1]; buffer solution pH = 1.2, 37° C.) | Solubility ([1]; buffer solution pH = 7.4, 37° C.) | solubility at 24 h ([1]; deionized water, water) | Solubilities compared with the original crystal form I ([1]; deionized water, pH 6.8, pH 7.4 and pH 1.2 buffer solutions) | Solubility ([1]; sodium phosphate buffer solution pH = 6.8, 37° C.) | Stability of the crystal form [2] | Stability of the crystal form [3] | Weight gain (moisture absorption) (Moisture absorption) | Stability of the crystal form [4] | solubility at 24 h ([1]; buffer solution, pH 1.2, simulated gastric fluid, buffer solution pH = 1.2, 37° C.) | SMILES |
| --- | --- | --- | --- | --- | --- | --- | --- | --- | --- | --- |
| 73.61 mg/mL (≈ 206 mM) | 30.54 mg/mL (≈ 85.5 mM) | 8.51 mg/mL (≈ 23.8 mM) | significantly-higher solubilities | 32.78 mg/mL (≈ 91.7 mM) | no impact on the stability | no impact on the stability | less than 0.4% | no impact on the stability | – | Cn1c(=O)cc(N2CCC[C@@H](N)C2)n(Cc2cc(F)ccc2C#N)c1=O [Crystal form F, trelagliptin] |
| – | – | – | – | – | – | – | – | – | 42.7 mg/mL (≈ 119 mM) | Cn1c(=O)cc(N2CCC[C@@H](N)C2)n(Cc2cc(F)ccc2C#N)c1=O [Crystal form I, trelagliptin] |
